Data from patent publication US8632825B2, “Anti-tumoural effects of cannabinoid combinations” (GW Pharma Limited, priority 2008, dated 2014).
Where a SMILES comes first, the peptide text is derived from it. The star is where a group is joined. Cbz = O=C(OCc1ccccc1)*; CH2F = FC*

Assays:
[1] = tested on: human U87 MG astrocytoma cells; assay: Cell viability of human U87 MG astrocytoma cells in culture; assay type: cell-based; conditions: U-87 MG, pure cannabinoids
Experimental: Tetrahydrocannabinol (THC) and cannabidiol (CBD) in the form of cannabis plant extracts were dissolved in ethanol to a concentration of 100 mM this was stored at −20° C. until required.
Before use the cannabis plant extracts were further diluted to the desired concentration, ensuring that the concentration of ethanol was below 0.001%.
U87 human glioma cells were used throughout this experiment. The cells were maintained at 37° C. in a humidified atmosphere with 5% CO2 and 95% air.
Cells were cultured in a 75 cm^2 culture flask in Dulbecco's Modified Eagle Medium (DMEM), which had been supplemented with 4 mM L-glutamine, 100 units/ml penicillin, […], 1% sodium pyruvate, 1% non-essential amino acids and 10% heat-inactivated fetal bovine serum.
The viability of the human U87 MG astrocytoma cells were examined at various cannabinoid concentrations. The THC and CBD extracts were compared against pure THC and CBD.
The methods used were as described in Example 1 above.

[2] = tested on: Human U87 MG astrocytoma cells xenografted to nude mice; assay: Tumour volume of U87 MG xenografts in nude mice; assay type: in vivo; conditions: following 15 days of treatment, 15 mg/kg per day peritumourally
Experimental: Human U87 MG astrocytoma cells were xenografted to nude mice and the test compounds were injected peritumourally at a concentration of 15 mg/kg per day.

U87MG cells = assay: Induced cell death with ATG1 silencing or pan-caspase inhibition; conditions: pan-caspase inhibitor; FIG. 3c

Structure (SMILES) | IC50 [1] | Tumour volume relative to zero time [2] | induced cell death (U87MG cells)
C=C(C)[C@@H]1CCC(C)=C[C@H]1c1c(O)cc(CCCCC)cc1O [CBD, cannabidiol] | 0.47 µM | – | –
CCCCCc1cc(O)c2c(c1)OC(C)(C)[C@@H]1CCC(C)=C[C@@H]21 [THC, tetrahydrocannabinol] | 0.37 µM | 5.1 ± 0.4 | –
CC(NC(=O)C(NC(=O)OCc1ccccc1)C(C)C)C(=O)NC(CC(=O)O)C(=O)CF (stereo not drawn) [Z-VAD] (Cbz-Val-Ala-Asp-CH2F; configuration not given here) | – | – | prevent induced cell death
